One test has as its system HCT 116 p53^−/− cells. Description: MTS cytotoxicity assay, HCT 116 p53-/-. Type of test: cell-based, human. The conditions noted are these: for IC50: Homo sapiens, HCT 116 p53^−/−, 72 h incubation, MTS; for Selectivity index, HCT 116 p53 −/−: NHDF vs HCT 116 p53 −/−. The source says:
(§1) M. Rusin from the Maria Sklodowska-Curie Memorial Cancer Centre and Institute of Oncology in Gliwice, Poland. […] G. Kramer-Marek from the Institute of Cancer Research in London, United Kingdom. The human suspension chronic myelogenous leukemia cell line K562 and pancreas ductal adenocarcinoma cell line PANC-1 were purchased from Sigma-Aldrich (St. Louis, MO, USA), while the normal human dermal fibroblasts cell line NHDF were purchased from PromoCell. […] Each medium contained a combination of two antibiotics: penicillin and streptomycin (1% v/v; Gibco). All of these cell lines were grown under standard conditions at 37 °C with a 5% CO2 humidified atmosphere. Moreover, all of the cell lines were routinely tested for mycoplasma using the PCR technique with specific Mycoplasma primers to confirm that there was no contamination.
(§2) The assay was performed following a 72 h incubation with the various concentrations of the tested compounds. Then, 100 µL DMEM without phenol red with 20 µL of the CellTiter 96®AQueous One Solution-MTS (Promega, Promega, WI, USA) was added to each well and incubated for 1 h or 3 h (PANC-1) at 37 °C. The optical densities of the samples were measured at 490 nm using a multi-plate reader (Synergy 4, BioTek, Winooski, VT, USA). […] Each individual compound was tested in triplicate in a single experiment with each experiment being performed three or four times.
(Tetrazolium assays rely on reduction of a dye to a coloured formazan, in cell work by metabolically active cells.)

Another test has as its system K562 cells. The test can be described thus: MTS cytotoxicity assay, K562. The following applies: for IC50: Homo sapiens, K562, 72 h incubation, MTS; for Selectivity index, K562: normal fibroblasts NHDF vs K562. Type of test: cell-based, human.
From the text: as §1, §2

For the next test, the system named is MCF-7 cells. The test can be described thus: MTS cytotoxicity assay, MCF-7. Type of test: cell-based, human. The conditions noted are these: for IC50: Homo sapiens, MCF7, MCF-7, 72 h incubation, MTS; for Selectivity index, MCF-7: NHDF vs MCF-7.
From the text: as §1, §2

The test system of another test is U-251 cells. Description: MTS cytotoxicity assay, U-251. Type of test: cell-based, human. The conditions noted are these: for IC50: Homo sapiens, U-251, 72 h incubation, MTS; for Selectivity index, U-251: NHDF vs U-251.
From the text: as §1, §2

Another test deals with PANC-1 cells. The test can be described thus: MTS cytotoxicity assay, PANC-1. The conditions noted are these: for IC50: Homo sapiens, PANC-1, 72 h incubation, MTS; for Selectivity index, PANC-1: NHDF vs PANC-1. Type of test: cell-based, human.
From the text: as §1, §2

The next test has as its target T1, Lck (Homo sapiens, UniProt P06239).
T1 construct: purchased Promega
Description: Tyrosine kinase assay (Kinase Selectivity TK-2, ADP-Glo). Type of test: biochemical. The conditions noted are these: read-out: Inhibitory Effect of the Tyrosine Kinase Activity, Lck. As to the method: (§3) Assays using the Kinase Selectivity TK-2 profiling systems and ADP-Glo Kinase Assay (both from Promega) were performed to determine the inhibition of the non-receptor tyrosine kinases. The protocol was previously designed and described by our group in reports. The experiments were performed at least four times. The data are expressed as the percentage of the inhibition activity of tyrosine kinase after treatment with the tested derivatives.

A further test concerns the target T2, Src (Homo sapiens, UniProt P12931).
T2 construct: purchased Promega
Described as above. Type of test: biochemical. The following applies: read-out: Inhibitory Effect of the Tyrosine Kinase Activity, Src. As to the method: as §3

The next test has as its target T3, Fyn A (Homo sapiens, UniProt P06241).
T3 construct: purchased Promega
The test is described as above. Type of test: biochemical. The conditions noted are these: read-out: Inhibitory Effect of the Tyrosine Kinase Activity, Fyn A. As to the method: as §3

The target of another test is T4, ABL1 (Homo sapiens, UniProt P00519).
T4 construct: purchased Promega
T4 sequence (P00519 whole entry): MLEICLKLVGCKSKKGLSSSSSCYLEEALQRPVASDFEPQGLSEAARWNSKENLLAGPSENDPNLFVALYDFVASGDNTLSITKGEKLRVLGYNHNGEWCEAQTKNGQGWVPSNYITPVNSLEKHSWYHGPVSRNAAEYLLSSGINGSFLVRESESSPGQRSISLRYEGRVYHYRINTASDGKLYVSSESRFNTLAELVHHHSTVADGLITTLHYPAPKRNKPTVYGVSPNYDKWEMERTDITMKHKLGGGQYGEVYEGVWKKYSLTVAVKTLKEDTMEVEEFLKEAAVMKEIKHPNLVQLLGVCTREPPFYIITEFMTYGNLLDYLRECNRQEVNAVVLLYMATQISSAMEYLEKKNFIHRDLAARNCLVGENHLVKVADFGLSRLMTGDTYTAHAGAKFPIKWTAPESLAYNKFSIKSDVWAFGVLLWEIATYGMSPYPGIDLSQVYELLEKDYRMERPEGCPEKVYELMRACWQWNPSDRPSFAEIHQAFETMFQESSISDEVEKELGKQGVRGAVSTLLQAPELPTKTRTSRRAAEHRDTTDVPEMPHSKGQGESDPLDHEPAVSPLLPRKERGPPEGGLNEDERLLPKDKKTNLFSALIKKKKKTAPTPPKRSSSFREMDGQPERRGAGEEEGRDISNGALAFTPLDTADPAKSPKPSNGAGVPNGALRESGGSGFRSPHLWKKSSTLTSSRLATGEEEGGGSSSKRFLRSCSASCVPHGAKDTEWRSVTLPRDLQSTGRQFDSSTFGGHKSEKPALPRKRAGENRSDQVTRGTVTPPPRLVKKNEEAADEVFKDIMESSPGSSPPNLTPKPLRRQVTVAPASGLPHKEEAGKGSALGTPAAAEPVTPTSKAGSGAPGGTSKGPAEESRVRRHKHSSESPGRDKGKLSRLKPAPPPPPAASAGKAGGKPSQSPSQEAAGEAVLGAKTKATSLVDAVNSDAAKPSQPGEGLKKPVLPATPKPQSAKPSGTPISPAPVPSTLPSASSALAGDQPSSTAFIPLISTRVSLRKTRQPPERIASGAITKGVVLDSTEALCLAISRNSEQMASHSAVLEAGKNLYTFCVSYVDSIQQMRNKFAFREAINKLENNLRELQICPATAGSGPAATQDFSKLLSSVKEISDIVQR
Described as above. Type of test: biochemical. The conditions noted are these: read-out: Inhibitory Effect of the Tyrosine Kinase Activity, ABL1. As to the method:
as §3

The next test concerns the target T5, CSK (Homo sapiens, UniProt P41240).
T5 construct: purchased Promega
The test is described as above. Type of test: biochemical. The conditions noted are these: read-out: Inhibitory Effect of the Tyrosine Kinase Activity, CSK. How it is done:
as §3

In the next test the target is T6, BTK (Homo sapiens, UniProt Q06187).
T6 construct: purchased Promega
T6 sequence (Q06187 whole entry): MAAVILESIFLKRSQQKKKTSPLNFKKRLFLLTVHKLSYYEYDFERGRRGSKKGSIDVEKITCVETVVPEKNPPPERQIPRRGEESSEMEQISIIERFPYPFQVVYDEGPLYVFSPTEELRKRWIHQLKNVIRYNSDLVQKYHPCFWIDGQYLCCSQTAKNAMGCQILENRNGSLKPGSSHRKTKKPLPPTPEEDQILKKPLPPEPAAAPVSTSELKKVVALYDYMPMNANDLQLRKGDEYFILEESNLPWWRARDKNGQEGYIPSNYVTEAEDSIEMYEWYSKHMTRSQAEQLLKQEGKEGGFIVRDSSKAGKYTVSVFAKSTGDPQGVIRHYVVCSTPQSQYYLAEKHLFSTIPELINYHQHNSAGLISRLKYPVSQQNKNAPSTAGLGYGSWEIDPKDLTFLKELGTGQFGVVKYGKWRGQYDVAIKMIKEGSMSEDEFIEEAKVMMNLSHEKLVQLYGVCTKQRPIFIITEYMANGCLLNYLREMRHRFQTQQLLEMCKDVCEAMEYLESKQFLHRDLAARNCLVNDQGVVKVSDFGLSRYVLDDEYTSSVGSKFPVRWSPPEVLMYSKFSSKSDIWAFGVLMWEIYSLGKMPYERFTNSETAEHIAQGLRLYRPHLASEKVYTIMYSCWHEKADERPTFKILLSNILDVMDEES
The test is described as above. The following applies: read-out: Inhibitory Effect of the Tyrosine Kinase Activity, BTK. Type of test: biochemical. How it is done:
as §3

In a further test the target is T7, BRK (Homo sapiens, UniProt Q13882).
T7 construct: purchased Promega
T7 sequence (Q13882 whole entry): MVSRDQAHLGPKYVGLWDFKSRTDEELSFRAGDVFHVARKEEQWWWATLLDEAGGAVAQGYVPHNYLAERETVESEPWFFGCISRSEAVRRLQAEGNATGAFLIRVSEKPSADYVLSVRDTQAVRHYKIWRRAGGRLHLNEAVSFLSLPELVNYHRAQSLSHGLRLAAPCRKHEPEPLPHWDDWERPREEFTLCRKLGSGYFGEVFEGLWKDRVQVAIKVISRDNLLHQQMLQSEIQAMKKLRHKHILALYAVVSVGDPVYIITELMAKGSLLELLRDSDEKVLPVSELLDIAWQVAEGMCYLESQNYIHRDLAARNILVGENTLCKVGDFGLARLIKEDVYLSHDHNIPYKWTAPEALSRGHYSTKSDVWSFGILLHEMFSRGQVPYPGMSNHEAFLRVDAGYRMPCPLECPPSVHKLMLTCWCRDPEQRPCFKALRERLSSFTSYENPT
The test is described as above. Type of test: biochemical. The conditions noted are these: read-out: Inhibitory Effect of the Tyrosine Kinase Activity, BRK. As to the method: as §3

The next test deals with T8, Lyn B (Homo sapiens, UniProt P07948).
T8 construct: purchased Promega
T8 sequence (P07948 1-491 isoform P07948-2): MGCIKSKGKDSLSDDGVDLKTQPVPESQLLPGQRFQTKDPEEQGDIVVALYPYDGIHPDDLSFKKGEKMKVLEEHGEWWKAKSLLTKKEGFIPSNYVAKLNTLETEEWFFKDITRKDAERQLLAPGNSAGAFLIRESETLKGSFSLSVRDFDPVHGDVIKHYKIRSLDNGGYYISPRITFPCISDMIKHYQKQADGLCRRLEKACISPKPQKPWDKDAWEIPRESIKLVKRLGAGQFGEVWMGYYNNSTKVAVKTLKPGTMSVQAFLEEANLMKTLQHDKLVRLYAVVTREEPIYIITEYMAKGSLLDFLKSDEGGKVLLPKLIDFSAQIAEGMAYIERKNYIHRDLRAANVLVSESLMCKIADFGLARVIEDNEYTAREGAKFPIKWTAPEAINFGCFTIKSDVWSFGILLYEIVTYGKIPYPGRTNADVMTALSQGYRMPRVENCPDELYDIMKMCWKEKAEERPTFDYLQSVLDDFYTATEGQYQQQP
The test is described as above. The following applies: read-out: Inhibitory Effect of the Tyrosine Kinase Activity, Lyn B. Type of test: biochemical. As to the method:
as §3

In another test the test system is NHDF cells. The test can be described thus: MTS cytotoxicity assay, normal fibroblasts NHDF. Type of test: cell-based. The conditions noted are these: NHDF normal human fibroblasts, 72 h incubation.
From the text: as §1, §2

Another test relates to A549 cells. The test can be described thus: MTS cytotoxicity assay, A549. Type of test: cell-based, human. The conditions noted are these: for IC50: Homo sapiens, A549, 72 h, A549, 72 h incubation, MTS; for Selectivity index, A549: NHDF vs A549.
From the text: as §1, §2

The next test has as its system HCT 116 p53^+/+ cells. The test can be described thus: MTS cytotoxicity assay, HCT 116 p53+/+. The conditions noted are these: for IC50: Homo sapiens, HCT 116 p53^+/+, 72 h incubation, MTS; for Selectivity index, HCT 116 p53+/+: NHDF vs HCT 116 p53+/+. Type of test: cell-based, human.
From the text: as §1, §2

This note sets out measurements from paper PMC8068801, “Novel Benzenesulfonate Scaffolds with a High Anticancer Activity and G2/M Cell Cycle Arrest” (Cancers, 2021).

T3 sequence (P06241 whole entry): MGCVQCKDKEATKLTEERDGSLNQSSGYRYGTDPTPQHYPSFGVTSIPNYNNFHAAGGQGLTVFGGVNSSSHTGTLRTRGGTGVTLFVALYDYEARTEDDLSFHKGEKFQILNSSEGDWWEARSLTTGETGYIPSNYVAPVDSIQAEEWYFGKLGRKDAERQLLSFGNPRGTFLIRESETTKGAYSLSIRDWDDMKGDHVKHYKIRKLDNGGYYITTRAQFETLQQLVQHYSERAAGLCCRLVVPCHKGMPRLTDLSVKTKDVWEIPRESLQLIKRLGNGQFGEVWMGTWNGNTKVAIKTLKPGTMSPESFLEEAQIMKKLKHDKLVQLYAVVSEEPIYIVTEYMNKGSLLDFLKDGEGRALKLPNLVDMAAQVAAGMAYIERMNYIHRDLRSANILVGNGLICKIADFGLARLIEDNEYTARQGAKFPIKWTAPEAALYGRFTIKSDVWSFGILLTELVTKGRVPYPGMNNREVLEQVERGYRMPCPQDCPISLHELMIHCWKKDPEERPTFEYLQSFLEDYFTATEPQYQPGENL
T5 sequence (P41240 whole entry): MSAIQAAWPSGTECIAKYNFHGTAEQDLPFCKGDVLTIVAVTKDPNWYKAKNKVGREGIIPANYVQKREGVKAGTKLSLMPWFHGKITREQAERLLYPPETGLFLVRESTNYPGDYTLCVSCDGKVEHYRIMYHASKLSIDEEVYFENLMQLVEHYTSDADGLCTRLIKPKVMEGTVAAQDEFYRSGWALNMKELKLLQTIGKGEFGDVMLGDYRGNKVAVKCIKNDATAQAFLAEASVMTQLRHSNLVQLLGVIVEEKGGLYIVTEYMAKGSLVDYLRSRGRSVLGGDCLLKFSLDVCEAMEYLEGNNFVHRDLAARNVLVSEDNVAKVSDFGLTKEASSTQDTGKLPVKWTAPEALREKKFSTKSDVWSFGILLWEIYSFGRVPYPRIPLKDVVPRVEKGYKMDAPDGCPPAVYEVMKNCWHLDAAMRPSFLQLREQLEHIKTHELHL
T1 sequence (P06239 whole entry): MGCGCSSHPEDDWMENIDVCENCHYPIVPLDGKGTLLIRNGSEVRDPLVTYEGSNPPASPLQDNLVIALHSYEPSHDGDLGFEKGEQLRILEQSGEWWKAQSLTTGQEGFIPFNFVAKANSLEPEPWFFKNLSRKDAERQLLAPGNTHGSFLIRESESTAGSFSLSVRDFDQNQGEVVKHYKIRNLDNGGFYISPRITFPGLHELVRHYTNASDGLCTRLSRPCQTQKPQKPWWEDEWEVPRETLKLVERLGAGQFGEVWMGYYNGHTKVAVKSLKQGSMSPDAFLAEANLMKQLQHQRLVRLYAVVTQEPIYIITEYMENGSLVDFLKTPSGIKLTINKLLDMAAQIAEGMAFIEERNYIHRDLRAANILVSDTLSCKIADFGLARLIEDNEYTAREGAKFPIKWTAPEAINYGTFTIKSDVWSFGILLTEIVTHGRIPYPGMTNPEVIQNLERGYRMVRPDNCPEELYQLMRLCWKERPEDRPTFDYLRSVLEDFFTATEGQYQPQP
T2 sequence (P12931 whole entry): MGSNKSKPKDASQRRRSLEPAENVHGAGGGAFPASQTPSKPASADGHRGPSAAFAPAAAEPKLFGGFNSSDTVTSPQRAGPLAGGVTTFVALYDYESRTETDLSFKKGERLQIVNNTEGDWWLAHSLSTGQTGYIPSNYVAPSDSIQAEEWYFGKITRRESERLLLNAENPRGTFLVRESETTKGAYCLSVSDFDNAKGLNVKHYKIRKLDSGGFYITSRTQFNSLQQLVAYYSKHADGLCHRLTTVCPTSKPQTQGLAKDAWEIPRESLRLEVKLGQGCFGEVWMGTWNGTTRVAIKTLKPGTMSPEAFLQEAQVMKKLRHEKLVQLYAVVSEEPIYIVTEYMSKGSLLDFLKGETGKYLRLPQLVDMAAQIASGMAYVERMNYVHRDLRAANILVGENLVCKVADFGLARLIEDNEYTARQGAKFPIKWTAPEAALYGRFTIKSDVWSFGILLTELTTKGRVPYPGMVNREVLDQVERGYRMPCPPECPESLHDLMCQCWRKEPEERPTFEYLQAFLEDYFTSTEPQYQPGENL

For `COc1ccccc1/C=C/c1nc(OS(=O)(=O)c2ccc3c(c2)OCO3)c2ccccc2n1` [BS1, 2-((E)-2-(2-methoxyphenyl)ethenyl)quinazolin-4-yl 1,3-benzodioxole-5-sulfonate], the 50% inhibitory concentration (IC50) with HCT 116 p53^−/− cells amounted to 563 ± 121 nM; with K562 cells, 172 ± 34 nM; in the test on MCF-7 cells, 8320 ± 1940 nM; in the test on U-251 cells, 1900 ± 649 nM; in the test on PANC-1 cells, 3980 ± 597 nM; in the test on NHDF cells it was 12500 ± 855 nM. The values for the concentration for half-maximal inhibition (IC50) with A549 cells and in the test on HCT 116 p53^+/+ cells were > 25000 nM and 880 ± 86 nM, respectively. In addition, in the test with HCT 116 p53^−/− cells, the “Selectivity index, HCT 116 p53 −/−” value was determined as 22.27. In addition, the “Selectivity index, K562” value with K562 cells worked out at 72.91. Further, the “Selectivity index, MCF-7” value with MCF-7 cells turned out to be 1.51. The “Selectivity index, U-251” value in the test with U-251 cells is 6.61. In addition, the “Selectivity index, PANC-1” value in the test on PANC-1 cells worked out at 3.15. In addition, the inhibition at 0.5 µM at Lck was found to be 25.8%; at Src, 0.19%; on Fyn A, 23.7%; on ABL1, 28.4%; at CSK, 0%; on BTK it was 18.8%. The inhibition at 0.5 µM at BRK came out at 15.3%; on Lyn B it was 0%. In addition, the “Selectivity index, A549” value with A549 cells came to 1.00. The “Selectivity index, HCT 116 p53+/+” value in the test on HCT 116 p53^+/+ cells came out at 14.25.

For the molecule `COc1ccccc1/C=C/c1nc(OS(=O)(=O)c2cc3c(cc2Br)OCO3)c2ccccc2n1` [BS2, 2-((E)-2-(2-methoxyphenyl)ethenyl)quinazolin-4-yl 6-bromo-1,3-benzodioxole-5-sulfonate], the IC50 with HCT 116 p53^−/− cells is 1310 ± 290 nM; with K562 cells, 246 ± 55 nM; with MCF-7 cells, 16800 ± 2060 nM; with U-251 cells, 2300 ± 234 nM; in the test with PANC-1 cells, 2900 ± 622 nM; with NHDF cells, 15700 ± 1410 nM. Also, the figures for the IC50 with A549 cells and with HCT 116 p53^+/+ cells were > 25000 nM and 1200 ± 132 nM, respectively. Moreover, in the test on HCT 116 p53^−/− cells, the “Selectivity index, HCT 116 p53 −/−” value is 11.94. In addition, the “Selectivity index, K562” value in the test on K562 cells came to 63.70. Besides, the “Selectivity index, MCF-7” value in the test with MCF-7 cells is on record as 0.93. In addition, the “Selectivity index, U-251” value in the test with U-251 cells was 6.80. Further, in the test with PANC-1 cells, the “Selectivity index, PANC-1” value came to 5.39. Besides, the inhibition at 0.5 µM on Lck came out at 9.93%; on Src it was 26.3%; on Fyn A, 0%; on ABL1, 0%; on CSK, 34.2%; at BTK it was 40.2%. Moreover, the inhibition at 0.5 µM on BRK amounted to 9.33%; on Lyn B it was 38%. Besides, the “Selectivity index, A549” value in the test on A549 cells is given as 1.00. The “Selectivity index, HCT 116 p53+/+” value in the test with HCT 116 p53^+/+ cells is 13.06.

As to `COc1ccccc1/C=C/c1nc(OS(=O)(=O)c2ccc(C)cc2)c2ccccc2n1` [BS4, 2-((E)-2-(2-methoxyphenyl)ethenyl)quinazolin-4-yl 4-methylbenzenesulfonate], the IC50 with HCT 116 p53^−/− cells was 3720 ± 487 nM; with K562 cells it was 173 ± 31 nM; in the test with MCF-7 cells, 9130 ± 2050 nM; in the test on U-251 cells it was 1910 ± 214 nM; in the test on PANC-1 cells, 235 ± 42 nM; in the test with NHDF cells, > 25000 nM. In addition, the results for the IC50 with A549 cells and in the test on HCT 116 p53^+/+ cells were 11300 ± 1760 nM and 1570 ± 357 nM, respectively. The “Selectivity index, HCT 116 p53 −/−” value in the test with HCT 116 p53^−/− cells worked out at 6.71. The “Selectivity index, K562” value in the test with K562 cells worked out at 144.51. Moreover, in the test on MCF-7 cells, the “Selectivity index, MCF-7” value turned out to be 2.74. The “Selectivity index, U-251” value with U-251 cells was found to be 13.11. Further, in the test with PANC-1 cells, the “Selectivity index, PANC-1” value was 106.38. Moreover, the inhibition at 0.5 µM is 19.5% on Lck; 0% on Src; 3.51% on Fyn A; 0% at ABL1; 28.3% on CSK; 26.9% on BTK. The inhibition at 0.5 µM at BRK was determined as 35.5%; at Lyn B, 0%. Also, in the test on A549 cells, the “Selectivity index, A549” value amounted to 2.20. Further, in the test on HCT 116 p53^+/+ cells, the “Selectivity index, HCT 116 p53+/+” value turned out to be 15.95.

Usually IC50 stands for the concentration that inhibits the measured activity by half.
